We go through 9 compounds from publication PMC7880572 (ACS Chemical Neuroscience, 2021).

Molecules are shown by their SMILES. Read-outs that look alike come from different tables or passages of the source.

One data set in a line: in vitro. The conditions noted are these: PAMPA, pH 7.4.
The conditions of data set [1]: literature reported PAMPA-BBB permeability; ref 1 (Di et al., 2003); cited from earlier work.
The target in data set [2] is T1, MAO B (Homo sapiens, UniProt P27338).
T1 construct: purchased Sigma-Aldrich
T1 sequence (P27338 1-520): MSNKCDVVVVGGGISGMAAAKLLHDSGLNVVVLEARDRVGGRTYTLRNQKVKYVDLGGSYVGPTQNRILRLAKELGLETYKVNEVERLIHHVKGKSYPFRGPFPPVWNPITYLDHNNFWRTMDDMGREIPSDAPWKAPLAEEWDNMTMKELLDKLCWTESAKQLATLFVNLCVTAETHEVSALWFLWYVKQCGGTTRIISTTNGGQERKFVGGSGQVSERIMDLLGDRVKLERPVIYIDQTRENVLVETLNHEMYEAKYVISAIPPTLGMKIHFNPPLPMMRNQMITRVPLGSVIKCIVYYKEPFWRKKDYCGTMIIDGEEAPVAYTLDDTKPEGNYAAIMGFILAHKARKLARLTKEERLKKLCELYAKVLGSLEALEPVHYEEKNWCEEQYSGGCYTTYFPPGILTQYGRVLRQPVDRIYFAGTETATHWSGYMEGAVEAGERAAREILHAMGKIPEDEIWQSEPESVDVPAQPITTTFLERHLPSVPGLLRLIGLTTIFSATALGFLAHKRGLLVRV
As to the kind of experiment: MAO B kynuramine assay in spectrophotometric mode (4-hydroxyquinoline absorbance at 316 nm), incl. time course. The class given is biochemical.

Data set [3] concerns the target T2, eeAChE (AChE from electric eel) (Electrophorus electricus, UniProt O42275).
T2 construct: purchased Sigma-Aldrich, Milan, Italy
As to the kind of experiment: biochemical. The conditions noted are these: mean ± SEM, n = 3.

The target of the next data set is PHF6 tau sequence (Homo sapiens, UniProt P10636). As to the kind of experiment: Inhibition of PHF6 aggregation (ThT fluorescence). The conditions noted are these: for inhibition at 10 µM: read-out: PHF6 aggregation inhibition.
For data set [4] the following is noted: based on the PAMPA-BBB classification range from Di et al.
The next data set addresses T3, Aβ42 (Homo sapiens, UniProt P05067).
T3 construct: purchased EzBiolab, Carmel, IN, USA
As to the kind of experiment: Inhibition of Aβ42 fibrillation by ThT fluorescence assay. The class given is biochemical. As to conditions: Aβ42 30 μM, 37 °C, 48 h; for inhibition of Aβ42 aggregation (activity profile): 100 and 5 μM. How it is done: Its high propensity to self-aggregate allows a fast execution of aggregation assays without the need of aggregation enhancers as for Aβ40.
Quercetin (QUR) was used as reference compound.
(§1) After incubation in 96-well black, nonbinding microplates (Greiner Bio-One GmbH, Frickenhausen, Germany), thioflavin T (25 μM) was added and fluorimetric reads (ex 440, em 485 nm) were performed in a multiplate reader Infinite M1000 Pro (Tecan, Cernusco sul Naviglio, Italy). Experiments were run in triplicate. Results were expressed by statistical analysis while IC50 values were obtained by nonlinear regression using Prism software (GraphPad Prism version 5.00 for Windows, GraphPad Software, San Diego, CA, USA).

The subject of another data set is cerebellar granule cells. As to the kind of experiment: In vitro cytotoxicity (MTT). The class given is cell-based. As to conditions: CGCs, compound 10 μM, 48 h, mean ± SEM. The method, then:
. […] For a more meaningful assessment of the value of the present compounds, the issue of their toxicity, in comparison to established drugs for AD, should deserve further investigation.
Cerebellar granule cells were prepared from 8-day-old Sprague Dawley rats as described previously.[66] Cells were studied from the 6th to the 12th day in vitro. The experimental procedures and care of the animals were performed in compliance with the Directive of the EU Parliament and Council of September 22, 2010 (2010/63/EU) and were approved by the Italian Ministry of Health (COD. 75F11.N.6DX) in accordance with D.M. 116/1992. All efforts were made in order to minimize animal suffering and the number of animals necessary to obtain reliable results.
[…]. Cells were maintained in 5% CO2 at 37 °C. The cell viability was assessed by the MTT assay 48 h after the treatment. […]. The survival rates of viable cells were calculated by comparing the optical absorbance of treated samples with that of the untreated controls. All experiments were repeated at least three times independently, and data are expressed as the mean ± SEM.

The target in data set [5] is T1, MAO B. As to the kind of experiment: MAO B inhibition (fluorimetric kynuramine assay, inhibition kinetics). The class given is biochemical. The conditions noted are these: for IC50: mean ± SEM, n = 3.
The target of data set [6] is T4, Aβ40 (Homo sapiens, UniProt P05067).
T4 construct: samples of Aβ40 (30 μM) were coincubated for 2 h at 25 °C with test molecules; purchased EzBiolab, Carmel, IN, USA
As to the kind of experiment: Inhibition of self-induced Aβ40 aggregation (ThT fluorescence, HFIP). The class given is biochemical. As to conditions: Aβ40 30 μM, 2 h at 25 °C, PBS 2% HFIP; mean ± SEM, n = 3; read-out: Aβ40 aggr IC50. The method, then: In vitro inhibition of Aβ40 aggregation was assessed following a previously reported thioflavin T (ThT) fluorescence-based method involving the use of hexafluoroisopropanol (HFIP) as aggregation enhancer. […].
In vitro inhibition assay of Aβ40 aggregation has been previously reported[41] and adapted to a 96-well plate platform.
as §1

A further data set deals with T5, hMAO A (Homo sapiens, UniProt P21397).
T5 construct: purchased Sigma-Aldrich
T5 sequence (P21397 1-527): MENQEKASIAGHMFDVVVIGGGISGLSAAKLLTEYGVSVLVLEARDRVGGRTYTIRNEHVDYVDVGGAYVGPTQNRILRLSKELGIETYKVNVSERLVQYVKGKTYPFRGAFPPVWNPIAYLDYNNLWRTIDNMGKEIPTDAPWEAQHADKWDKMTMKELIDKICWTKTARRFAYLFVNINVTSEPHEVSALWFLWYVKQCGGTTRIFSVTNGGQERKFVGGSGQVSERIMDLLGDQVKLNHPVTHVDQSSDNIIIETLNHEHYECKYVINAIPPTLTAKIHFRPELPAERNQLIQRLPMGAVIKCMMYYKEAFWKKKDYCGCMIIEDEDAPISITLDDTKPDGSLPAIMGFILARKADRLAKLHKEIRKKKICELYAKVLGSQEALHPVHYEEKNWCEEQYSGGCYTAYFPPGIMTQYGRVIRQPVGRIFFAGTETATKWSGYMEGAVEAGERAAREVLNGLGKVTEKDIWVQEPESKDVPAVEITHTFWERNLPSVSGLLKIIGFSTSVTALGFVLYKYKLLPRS
As to the kind of experiment: MAO A inhibition (fluorimetric kynuramine assay). The class given is biochemical. As to conditions: mean ± SEM, n = 3.

The target in data set [7] is T6, esBChE (BChE from equine serum) (Equus caballus, UniProt P81908).
T6 construct: BChE from horse serum (13 U/mL); purchased Sigma-Aldrich, Milan, Italy; host or cells: horse serum
As to the kind of experiment: biochemical. The conditions noted are these: mean ± SEM, n = 3.

Another data set addresses T7, R3 tau sequence (Homo sapiens, UniProt P10636).
T7 construct: The 30-amino acid peptide (V306-Q336) R3; purchased Bachem, Bubendorf, Switzerland
As to the kind of experiment: Inhibition of R3 aggregation (ThT fluorescence). The class given is biochemical. The conditions noted are these: R3 25 μM, 4 h at 37 °C; mean of two independent experiments. An excerpt:
. The 30-amino acid peptide (V306-Q336) R3 is a high-repeated domain containing the PHF6 sequence and present in all tau isoforms.[62] Its high propensity to self-aggregate in buffered solutions, even in the absence of aggregation inducers such as heparin,[63] makes R3 a reliable surrogate of full-length tau protein for in vitro experiments. In our assay protocol, the commercial R3 peptide was pretreated with 1,1,1-trifluoroethanol (TFE) overnight in order to dissolve any preformed aggregate and reestablish the random coil arrangement, then diluted in PBS at the test concentration of 25 μM.
A stock solution of 1.5 mM R3 (trifluoroacetate salt; Bachem, Bubendorf, Switzerland) was prepared in TFE and left overnight at room temperature. […] . […] IC50 values were calculated by means of Prism as the mean of two independent experiments.

A further data set deals with AChE. Set-up: method as in PMID 25924599. The conditions noted are these: first series; cited from earlier work.
The target in data set [8] is T4, Aβ40. Set-up: method as in PMID 25924599. As to conditions: first series; cited from earlier work.
For another data set, the system named is BChE. Also noted: method as in PMID 25924599. As to conditions: first series; cited from earlier work.

T6 sequence (P81908 whole entry): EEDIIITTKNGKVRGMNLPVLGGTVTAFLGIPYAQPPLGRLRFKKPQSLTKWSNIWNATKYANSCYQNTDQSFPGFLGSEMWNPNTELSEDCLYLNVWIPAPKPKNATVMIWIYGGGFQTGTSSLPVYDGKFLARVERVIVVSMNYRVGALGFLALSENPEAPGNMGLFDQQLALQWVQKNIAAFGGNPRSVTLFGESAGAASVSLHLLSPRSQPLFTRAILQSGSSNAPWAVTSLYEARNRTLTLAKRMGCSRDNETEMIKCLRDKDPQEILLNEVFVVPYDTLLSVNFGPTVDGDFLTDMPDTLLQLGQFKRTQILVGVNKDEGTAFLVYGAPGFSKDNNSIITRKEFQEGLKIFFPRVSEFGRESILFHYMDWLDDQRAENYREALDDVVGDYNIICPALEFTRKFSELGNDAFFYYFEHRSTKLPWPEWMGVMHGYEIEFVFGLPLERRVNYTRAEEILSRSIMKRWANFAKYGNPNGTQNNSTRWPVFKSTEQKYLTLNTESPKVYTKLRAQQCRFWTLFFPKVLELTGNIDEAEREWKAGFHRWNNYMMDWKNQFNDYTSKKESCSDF
T2 sequence (O42275 24-633): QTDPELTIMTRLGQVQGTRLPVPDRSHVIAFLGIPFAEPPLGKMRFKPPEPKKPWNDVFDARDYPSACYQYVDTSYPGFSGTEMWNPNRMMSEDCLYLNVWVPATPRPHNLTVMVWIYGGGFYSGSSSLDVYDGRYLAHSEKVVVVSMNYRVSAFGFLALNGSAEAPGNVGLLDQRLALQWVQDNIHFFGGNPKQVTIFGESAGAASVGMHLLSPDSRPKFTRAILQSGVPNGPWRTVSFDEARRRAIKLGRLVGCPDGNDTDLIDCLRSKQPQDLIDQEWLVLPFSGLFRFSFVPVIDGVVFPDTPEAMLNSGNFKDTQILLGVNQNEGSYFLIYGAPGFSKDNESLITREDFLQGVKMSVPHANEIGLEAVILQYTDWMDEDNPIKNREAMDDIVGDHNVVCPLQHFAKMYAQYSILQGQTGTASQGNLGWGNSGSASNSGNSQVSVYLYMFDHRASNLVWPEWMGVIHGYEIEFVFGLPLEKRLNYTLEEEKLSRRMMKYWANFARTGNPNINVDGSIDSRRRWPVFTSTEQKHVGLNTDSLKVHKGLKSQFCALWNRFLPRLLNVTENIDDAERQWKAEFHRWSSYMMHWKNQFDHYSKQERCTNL
T4 sequence (P05067 672-711 limits assumed): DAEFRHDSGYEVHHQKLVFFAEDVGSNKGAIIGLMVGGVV
T3 sequence (P05067 672-713 limits assumed): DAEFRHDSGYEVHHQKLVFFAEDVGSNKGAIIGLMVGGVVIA
T7 sequence (P10636 623-653 limits assumed): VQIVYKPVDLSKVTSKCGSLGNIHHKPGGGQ

With `Cc1nnc2n1-c1ccc(Cl)cc1C(c1ccccc1)=NC2` [Alprazolam], the Papp in the data set “in vitro” stood at 48 nm/s. In addition, the “Pe,rep” value in data set [1] is 5.4 10-6 cm/s.

Consider `O=C1C(Cl)=C(NCc2ccccc2)C(=O)c2ccccc21` [Compound 2], for which the “MAO B enzymatic activity in time course” value on MAO B [2] (10 nM inhibitor, absorption of 4-hydroxyquinoline at 316 nm) is given as “still present even after 3 h”. Also, the IC50 at MAO B [2] (absorbance of 4-hydroxyquinoline at 316 nm) amounted to 0.018 µM; in data set [3] it was 9.2 ± 0.6 µM; at MAO B [5], 0.0077 ± 0.0013 µM; at Aβ40 [6], 3.2 ± 0.8 µM; against hMAO A, 3.6 ± 0.3 µM. Moreover, the inhibition at 10 µM on PHF6 tau sequence came out at 91%; in data set [7], 26%. In addition, the CNS prediction result in [4] is given as “CNS+”. Besides, the “inhibition of Aβ42 aggregation” value at Aβ42 (lower concentration used (5 μM)) is “strong inhibitor”. In the data set “in vitro”, this compound had a Papp at 16 h of 284 ± 21 nm/s. Besides, the “cell viability vs control (%)” value in the data set with cerebellar granule cells is reported as 89 ± 14%. Also, the “increase of Ki for higher coincubation times” value at MAO B [5] (coincubation up to 2 h vs 5 min) is recorded as “about 20 fold”. In addition, the figures for the “MAO B inhibition mechanism” value on MAO B [5] (coincubation with enzyme limited to 5 min) and on MAO B [5] (higher coincubation times (up to 2 h)) were “competitive inhibition” and “noncompetitive”, respectively. Also, on MAO B [5] (ratio of inhibitory activities), the “selectivity MAO B versus MAO A” value amounted to 473 fold.

In the case of `O=C1C(Cl)=C(NCCc2ccccc2)C(=O)c2ccccc21` [Compound 3], the IC50 came to 7.9 ± 0.8 µM in data set [3]; 4.96 ± 0.75 µM on PHF6 tau sequence; 1.19 ± 0.44 µM against R3 tau sequence; 0.031 ± 0.001 µM against MAO B [5]; 4.4 ± 0.3 µM on Aβ40 [6]. Besides, the inhibition at 10 µM on PHF6 tau sequence is greater than 95%; against hMAO A, 41%; in [7] it was 24%.

Turning to `O=C1c2ccccc2C(=O)c2c(NCCc3ccccc3)cccc21` [Compound 11, 1-(Phenethylamino)-9,10-anthraquinone], the IC50 in data set [3] worked out at 7.3 ± 0.7 µM; on PHF6 tau sequence, 1.78 ± 0.23 µM; against R3 tau sequence, 0.36 ± 0.02 µM; on MAO B [5], 0.57 ± 0.02 µM; on Aβ40 [6] it was 2.1 ± 0.2 µM; on hMAO A, 3.1 ± 0.3 µM. The same compound showed an IC50 in [7] of 1.7 ± 0.3 µM. For the same compound, at PHF6 tau sequence, the inhibition at 10 µM was greater than 95%. The CNS prediction entry in [4] is given as “CNS+”. The “inhibition of Aβ42 aggregation (activity profile)” value at Aβ42 is listed as “best activity profile”. In addition, the Papp at 16 h in “in vitro” is 247 ± 22 nm/s. The “cell viability vs control (%)” value in the data set with cerebellar granule cells came out at 85 ± 15%.

In the case of `O=C1c2ccccc2C(=O)c2c(NCCCc3ccccc3)cccc21` [Compound 12, 1-[(3-Phenylpropryl)amino]-9,10-anthraquinone], the IC50 in data set [3] is 7.84 ± 0.03 µM; at MAO B [5], 0.24 ± 0.05 µM; at Aβ40 [6], 1.9 ± 0.3 µM; in [7] it was 8.2 ± 0.4 µM. Besides, the CNS prediction entry in [4] was “CNS+”. The “inhibition of Aβ42 aggregation (activity profile)” value on Aβ42 is reported as “best activity profile”. The Papp at 16 h in the data set “in vitro” amounted to 220 ± 19 nm/s. Further, in the data set with cerebellar granule cells, the “cell viability vs control (%)” value is recorded as 77 ± 12%. The compound also registered an inhibition at 10 µM against hMAO A of 50%.

Turning to `O=C1c2ccccc2C(=O)c2c(NC[C@@H]3CCCN4CCCC[C@H]34)cccc21` [IX], the IC50 in the data set with AChE is 0.84 µM; at Aβ40 [8], 6.4 µM.

`O=C1Nc2ccc(Cl)cc2C(c2ccccc2)=NC1O` (stereo not drawn) [Oxazepam] showed a Papp in the data set “in vitro” of 91 nm/s. Further, the “Pe,rep” value in data set [1] is listed as 10 10-6 cm/s.

Turning to `O=C1C(Cl)=C(NCCCSC[C@@H]2CCCN3CCCC[C@H]23)C(=O)c2ccccc21` [VII], the IC50 at Aβ40 [8] was 61 µM; with BChE it was 4.1 µM.

In the case of `CCN(CC)CCCNc1cccc2c1C(=O)c1ccccc1C2=O` [XIII], the IC50 at Aβ40 [8] was 61 µM.
